Patent US5478864A, “Method for disinfection using a 1,n-bis(N^5 -trifluoromethyl-phenyl-N^1 -biguanido)-alkane” (Mitsubishi Materials Corp., priority 1991, dated 1995)
Converted amounts (≈) assume the structure as drawn. Read-outs that look alike come from different tables or passages of the source.

Experiments:
dental plaque = details: Warner et al, 1973; cited from earlier work
Escherichia coli IID 951 = assay: minimum growth inhibition concentration, agar dilution; format: cell-based; details: IID951, Mueller-Hinton agar, IID 951, read-out: MIC
Method: (§1) Germicidal activity of the compound prepared in Example 1 (Compound I) was evaluated by the minimum growth inhibition concentration method (based on the standard method stipulated by Japan Society of Chemotherapy) and the phenol coefficient method.
(§2) A portion of the digluconate salt of the compound of Example 1 was dissolved in water and the solution was heated to dryness on a water bath. The dried salt was dissolved in acetic acid (potentiometric titration grade) and the concentration thereof was determined by potentiometric titration using a perchloric acid solution. The gluconate acid salt solution, whose concentration was thus determined, was diluted to predetermined concentrations with sterilized water. Each 1 ml of the solution of each concentration was placed in a Petri dish, 9 ml of Mueller-Hinton agar (supplied by Difco) was added thereto and well mixed. Thus sensitivity test media were prepared. The concentrations of the compound were 200 μg/ml and 2^n times wherein (n=-8 to 2). Separately, microorganism strains indicated in Table 1 were subcultured in propagation media (using Mueller-Hinton broth supplied by Difco) at 37° C. for 24 hours. The microorganism concentration was adjusted to 10^6 /ml. The thus obtained cultures were respectively inoculated on a series of sensitivity measuring culture media using an inoculation rod. […] The results are shown in Table 1 together with the result on chlorhexidine as a control.
(§3) Compounds of formula I, wherein the trifluoromethyl group is located at the p-position and n is 2, 3, 5, 8 and 11, were prepared starting from ethylene diamine dichloride, 1,3-propane diamine dichloride, 1,5-pentane diamine dichloride, 1,8-octane diamine dichloride or 1,11-undecane diamine dichloride, sodium dicyanamide and 4-trifluoromethyl aniline hydrochloride in accordance with the procedures as described above and minimum growth inhibition concentration (MIC) was determined in the same manner as above.
(§4) Disinfecting effect of the above-prepared compounds was tested by measurement of minimum growth inhibition concentration and by the test for immediate effect in the same manner as in Example 3.
(§5) Compounds of formula I, wherein the trifluoromethyl group is located at the m-position and n is 2, 3, 5 and 8, 11 were prepared starting from ethylene diamine dihydrochloride, 1,3-propane diamine dihydrochloride, 1,5-pentane diamine dihydrochloride, 1,8-octane diamine dihydrochloride or 1,11-undecane diamine dihydrochloride, sodium dicyanamide and 3-trifluoromethylaniline hydrochloride in accordance with the procedures of Example 4 and germicidal activity thereof were determined in the same manner.

[1] = tested on: Staphylococcus aureus FDA 209-P; assay: as above; format: cell-based; details: FDA209, Mueller-Hinton agar
Method: as §1, §2, §3, §4, §5

[2] = tested on: Pseudomonas aeruginosa IID 1042; assay: as above; format: cell-based
Method: as §1, §2, §3, §4, §5

[3] = tested on: Serratia marcescens IID 602; assay: as above; format: cell-based; details: IID602, Mueller-Hinton agar, IID 602, read-out: MIC
Method: as §1, §2, §3, §4, §5

[4] = tested on: Staphylococcus aureus (clin'ly col'ted MRSA); assay: minimum growth inhibition concentration, agar dilution (second MRSA line); format: cell-based; details: Mueller-Hinton agar, digluconate, clinically collected MRSA
Method: as §1, §2, §4

[5] = tested on: Staphylococcus aureus (clin'ly col'ted MRSA); assay: minimum growth inhibition concentration, agar dilution (first MRSA line); format: cell-based; details: Mueller-Hinton agar, digluconate, clinically collected MRSA, first line, read-out: MIC
Method: as §1, §2, §4

Escherichia coli IID 861 [6] = assay: test for immediate effect (phenol coefficient method); format: cell-based; details: of three runs, conc. 0.001%, 20° C.
Method: Immediate effect of this compound was evaluated in accordance with the phenol coefficient method described in "Directions for Hygienic Tests" compiled by the Ministry of Health and Welfare of Japan. The method is as follows. (1) Culture medium Each 10 ml of the bouillon described below was taken into test tubes and they were sterilized with high pressure steam at 120° C. for 20 minutes. (2) Test method Diluted solutions of a series of concentrations of the sample compound were prepared for each of microorganisms listed in Table 2. Each 10 ml of the solutions was put into an appraisal test tube and the test tubes were placed in a thermostat bath kept at 20° C. Each microorganism was subcultured in the above described bouillon medium for testing disinfectants for three generations (37° C. for 48 hours). Each 1 ml of each culture was placed in each of the above-described series of appraisal test tubes and well mixed. After 2.5, 5, 10 and 15 minutes, 0.1 ml of the content of each appraisal test tube was taken and inoculated onto each portion of the bouillon medium for testing disinfectants. […] Each test was carried out three times. Immediate effect of disinfectants was compared by number of test runs in which microorganism growth was observed. […]

[7] = tested on: Staphylococcus epidermis IID 866; assay: minimum growth inhibition concentration, agar dilution; format: cell-based; details: IID866, Mueller-Hinton agar, digluconate, IID 866, read-out: MIC
Method: as §1, §2, §4

[8] = tested on: Achromobacter xylosoxidans RIMD 0101001; assay: as above; format: cell-based; details: RIMD0101001, Mueller-Hinton agar, digluconate
Method: as §1, §2, §4

[9] = tested on: Klebsiella pneumoniae IID 865; assay: as above; format: cell-based; details: IID865, Mueller-Hinton agar, digluconate, read-out: MIC
Method: as §1, §2, §4

[10] = tested on: Pseudomonas cepacia (collected Chiba Univ.); assay: as above; format: cell-based; details: Burkholderia cepacia, Mueller-Hinton agar, digluconate
Method: as §1, §2, §4

[11] = tested on: Escherichia coli NIHJ JC-2; assay: as above; format: cell-based; details: NIHJJC2, Mueller-Hinton agar, digluconate, NIHJ JC-2, read-out: MIC
Method: as §1, §2, §4

[12] = tested on: Flavobacterium meningosepticum RIMD 0614002; assay: as above; format: cell-based; details: Elizabethkingia meningoseptica, RIMD0614002; Mueller-Hinton agar; digluconate
Method: as §1, §2, §4

Escherichia coli IID 861 [13] = assay: as above; format: cell-based; details: IID861, Mueller-Hinton agar, digluconate, IID 861, read-out: MIC
Method: as §1, §2, §4

[14] = tested on: Pseudomonas aerugimosa (clinically collected); assay: as above; format: cell-based; details: Mueller-Hinton agar, digluconate
Method: as §1, §2, §4

Proteus vulgaris IID 874 = assay: as above; format: cell-based; details: IID874, Mueller-Hinton agar, digluconate
Method: as §1, §2, §4

[15] = tested on: Alcaligenes faecalis IPO 13111; assay: as above; format: cell-based; details: IPO13111, Mueller-Hinton agar, digluconate
Method: as §1, §2, §4

[16] = Pseudomonas aeruginosa, IID1042, Mueller-Hinton agar, read-out: MIC

SMILES | MIC (Escherichia coli IID 951) | MIC [1] | MIC [2, 16] | MIC [3] | also measured
N=C(NCCCCCCNC(=N)NC(=N)Nc1ccccc1)NC(=N)Nc1ccccc1 [bis-phenyl-substituted derivative] |  |  |  |  | antiplaque activity (dental plaque): no antiplaque activity
N=C(NCCCNC(=N)NC(=N)Nc1cccc(C(F)(F)F)c1)NC(=N)Nc1cccc(C(F)(F)F)c1 [n = 3 (m-position)] | 3.13 µg/mL (≈ 5.9 µM) | 3.13 µg/mL (≈ 5.9 µM) | 50 µg/mL (≈ 94.3 µM) | 12.5 µg/mL (≈ 23.6 µM) | 
N=C(NCCNC(=N)NC(=N)Nc1ccc(C(F)(F)F)cc1)NC(=N)Nc1ccc(C(F)(F)F)cc1 [n = 2 (p-position)] | 12.5 µg/mL (≈ 24.2 µM) | 25 µg/mL (≈ 48.4 µM) | 200 µg/mL (≈ 387 µM) | 50 µg/mL (≈ 96.8 µM) | 
N=C(NCCCCCCNC(=N)NC(=N)NC1CCCCC1)NC(=N)NC1CCCCC1 [bis-cyclohexyl-substituted] |  |  |  |  | antiplaque activity (dental plaque): at the same level as chlorhexidin or better
N=C(NCCCCCCNC(=N)NC(=N)Nc1cccc(C(F)(F)F)c1)NC(=N)Nc1cccc(C(F)(F)F)c1 [Ex. 5, 1,6-bis(N^5-m-trifluoromethylphenyl-N^1-biguanido)-hexane] | 1.56 µg/mL (≈ 2.72 µM) | 0.78 µg/mL (≈ 1.36 µM) | 25 µg/mL (≈ 43.7 µM) | 6.25 µg/mL (≈ 10.9 µM) | MIC ([2]; Mueller-Hinton agar, listed as n = 6 (m-position)): 25.0 µg/mL (≈ 43.7 µM); MIC [4]: 1.56 µg/mL (≈ 2.72 µM); MIC [5]: 3.13 µg/mL (≈ 5.47 µM); number of test runs in which microorganism growth was observed (Escherichia coli IID 861 [6]; contact time 2.5 min): 2; number of test runs in which microorganism growth was observed (Escherichia coli IID 861 [6]; contact time 5.0 min): 1; number of test runs in which microorganism growth was observed (Escherichia coli IID 861 [6]; contact time 10.0 min): 0; number of test runs in which microorganism growth was observed (Escherichia coli IID 861 [6]; contact time 15.0 min): 0; MIC [7]: 1.56 µg/mL (≈ 2.72 µM); MIC [8]: 25 µg/mL (≈ 43.7 µM); MIC [9]: 1.56 µg/mL (≈ 2.72 µM); MIC [10]: 50 µg/mL (≈ 87.3 µM); MIC [11]: 1.56 µg/mL (≈ 2.72 µM); MIC [12]: 200 µg/mL (≈ 349 µM); MIC (Escherichia coli IID 861 [13]): 1.56 µg/mL (≈ 2.72 µM); MIC [14]: 25 µg/mL (≈ 43.7 µM); MIC (Proteus vulgaris IID 874): 12.5 µg/mL (≈ 21.8 µM); MIC [15]: 6.25 µg/mL (≈ 10.9 µM); antiplaque activity (dental plaque): superior antiplaque activity at lower concentrations
N=C(NCCCCCCNC(=N)NC(=N)NC12CC3CC(CC(C3)C1)C2)NC(=N)NC12CC3CC(CC(C3)C1)C2 [bis-1-adamanthyl-substituted derivatives] |  |  |  |  | antiplaque activity (dental plaque): at the same level as chlorhexidin or better
N=C(NCCNC(=N)NC(=N)Nc1cccc(C(F)(F)F)c1)NC(=N)Nc1cccc(C(F)(F)F)c1 [n = 2 (m-position)] | 12.5 µg/mL (≈ 24.2 µM) | 12.5 µg/mL (≈ 24.2 µM) | 200 µg/mL (≈ 387 µM) | 50 µg/mL (≈ 96.8 µM) | 

The next lines start with results.

MIC (Escherichia coli IID 951) | MIC [1] | MIC [2, 16] | MIC [3] | SMILES | also measured
1.56 µg/mL (≈ 2.6 µM) | 1.56 µg/mL (≈ 2.6 µM) | 25 µg/mL (≈ 41.6 µM) | 6.25 µg/mL (≈ 10.4 µM) | N=C(NCCCCCCCCNC(=N)NC(=N)Nc1cccc(C(F)(F)F)c1)NC(=N)Nc1cccc(C(F)(F)F)c1 [n = 8 (m-position)] | 
3.13 µg/mL (≈ 5.6 µM) | 0.78 µg/mL (≈ 1.4 µM) | 12.5 µg/mL (≈ 22.4 µM) | 6.25 µg/mL (≈ 11.2 µM) | N=C(NCCCCCNC(=N)NC(=N)Nc1cccc(C(F)(F)F)c1)NC(=N)Nc1cccc(C(F)(F)F)c1 [n = 5 (m-position)] | 
1.56 µg/mL (≈ 2.6 µM) | 1.56 µg/mL (≈ 2.6 µM) | 25 µg/mL (≈ 41.6 µM) | 6.25 µg/mL (≈ 10.4 µM) | N=C(NCCCCCCCCNC(=N)NC(=N)Nc1ccc(C(F)(F)F)cc1)NC(=N)Nc1ccc(C(F)(F)F)cc1 [n = 8 (p-position)] | 
1.56 µg/mL (≈ 2.94 µM) | 0.78 µg/mL (≈ 1.47 µM) | 50 µg/mL (≈ 94.3 µM) | 6.25 µg/mL (≈ 11.8 µM) | N=C(NCCCNC(=N)NC(=N)Nc1ccc(C(F)(F)F)cc1)NC(=N)Nc1ccc(C(F)(F)F)cc1 [n = 3 (p-position)] | 
25 µg/mL (≈ 38.9 µM) | 12.5 µg/mL (≈ 19.4 µM) | 400 µg/mL (≈ 622 µM) | 100 µg/mL (≈ 156 µM) | N=C(NCCCCCCCCCCCNC(=N)NC(=N)Nc1cccc(C(F)(F)F)c1)NC(=N)Nc1cccc(C(F)(F)F)c1 [n = 11 (m-position)] | 
50 µg/mL (≈ 77.8 µM) | 12.5 µg/mL (≈ 19.4 µM) | 400 µg/mL (≈ 622 µM) | 100 µg/mL (≈ 156 µM) | N=C(NCCCCCCCCCCCNC(=N)NC(=N)Nc1ccc(C(F)(F)F)cc1)NC(=N)Nc1ccc(C(F)(F)F)cc1 [n = 11 (p-position)] | 
3.13 µg/mL (≈ 5.6 µM) | 0.78 µg/mL (≈ 1.4 µM) | 12.5 µg/mL (≈ 22.4 µM) | 6.25 µg/mL (≈ 11.2 µM) | N=C(NCCCCCNC(=N)NC(=N)Nc1ccc(C(F)(F)F)cc1)NC(=N)Nc1ccc(C(F)(F)F)cc1 [n = 5 (p-position)] | 
